Drawing on patent US10125121B2, “FYN kinase inhibitors” (ROTTAPHARM BIOTECH S.R.L., priority 2015, dated 2018), this text covers IC50 for 18 molecules.

By IC50 is commonly meant the concentration that inhibits the measured activity by half.

For assay [1], the target named is active FYN (human recombinant, 62.7 kDa) (Homo sapiens, UniProt P06241). Description: In vitro kinase assay (Z′-LYTE FRET). It counts as biochemical. The following applies: read-out: IC50(nM) FYN INHIBITION
On the procedure:
Assays to determine the kinase inhibitory activity of compounds were performed using an automatic liquid handling device (Microlab STAR Hamilton) and Z′-LYTE™ Kinase Assay Platform, a Fluorescence Resonance Energy Transfer (FRET)-based assay platform compatible with high-throughput screening (HTS) applications. The assay employs a fluorescence-based, coupled-enzyme format and utilizes the differential sensitivity of phosphorylated and non-phosphorylated peptides to proteolytic cleavage.
All reagents were diluted in reaction buffer and the kinase reaction was carried out in a total volume of 10 μl, for 60 minutes at 25° C. The 0% Phosphorylation (i.e. no ATP) and 100% Phosphorylation (i.e. synthetically phosphorylated peptide supplied) Assay Controls, included in each plate, allowed to calculate the percent phosphorylation achieved in the specific reaction well. The 0% Inhibition and 0% Phosphorylation (i.e. 100% Inhibition) Controls define the dynamic range in the screen. At the end of incubation, a secondary reaction (the Development Reaction) started by adding 5 μl of Development Reagent, containing a site-specific protease that recognizes and cleaves non-phosphorylated peptides, and was interrupted after 60 minutes with 5 μl/sample of Stop Reagent.
The compounds were tested in a range of concentrations 10^−6-10^−9 M.
Results are expressed as percentage of inhibition and the IC50 values were calculated by non-linear curve fitting using GraphPad™ Prism software.

The test system of assay [2] is NF-kB activation in JB6 CI 41-5a (P+) cells. Description: Gene reporter (GR) assay, NF-kB luciferase after TNFα stimulation. It counts as cell-based, murine. The conditions noted are these: Mus musculus; 1 h pre-treatment, 2 ng/ml TNFα for 4 h; read-out: IC50(nM) GR Inhibition. The text has this:
To determine if the compounds of the invention were active also in a cellular model, a gene reporter assay was established in a cell line (JB6 CI 41-5a (P+)) know to activate Fyn kinase via an inflammatory stimuli (TNFα). GR assay measures the activation of the nuclear transcription factor NF-kB, situated down-stream the Fyn activation pathway. Products active in this analysis has to penetrate in the cell and inhibit the activation pathway of NF-kB.
The murine epithelial cell line JB6 CI 41-5a (P+) (ATCC® Cat. # CRL-2010) was stably transfected with the pGL4.32[luc2P/NFkB-RE/Hygro] vector (Promega). Clonal selection was achieved by limiting dilution in MEM (+Earle's BSS+1.5 g/l sodium bicarbonate+0.1 mM NEAA)+GlutaMAX™-I, +1 mM sodium pyruvate, +5% FBS+80 μg/ml Hygromycin B. The clones were tested for their response to TNFα stimulus. The obtained transfected cells (JB6(P+) NFkB-RE-luc2P T3-C10) contained a firefly luciferase gene (luc2P) under the control of minimal TATA promoter with multiple Nuclear Factor-kB response elements (NFkB-REs). These NFkB-REs are DNA binding sequences for the NF-kB transcription factor.
JB6(P+) NFkB-RE-luc2P T3-C10 cells were used for the analysis of NF-kB activity modulation, after TNFα stimulation, by Fyn-inhibitors (Hwang et al.; Biochem. Pharmacol. 2009, 77 (7):1213-22).
6000 cells/well were plated in a 96× well plate. After 24 h new medium without antibiotics was given. After further 24 h the cells were pre-treated with the different compounds for 1 h and then stimulated with 2 ng/ml TNFα for 4 h. In each experiments two positive standards were always used, and each tested condition was analyzed in quadruplicate.
The luciferase analysis was performed with ONE-Glo™+ToxLuciferase Reporter and Cell Viability Assay kit (Promega). This assay combined luciferase assay chemistry with a cell viability marker to better understand reporter gene expression in the context of cell health. The assay uses a two-step process. The first part of the assay was a non-lytic fluorescence assay (CellTiter-Fluor™ Cell Viability Assay) that measured the relative number of live cells in a culture population, as it measures a conserved and constitutive protease activity within live cells. The live-cell protease activity was restricted to intact viable cells and was measured using a fluorogenic, cell-permeant peptide substrate (glycyl-phenylalanyl-aminofluorocoumarin; GF-AFC). The generated fluorescent signal, proportional to the number of living cells, was measured with EnVision microplate reader (PerkinElmer) using an excitation wavelength of 400 nm and emission wavelength of 500 nm.
The second part of the assay uses the ONE-Glo™ Luciferase Assay System to quantify firefly luciferase reporter gene expression. The ONE-Glo™ Assay contained a fluoro-luciferin substrate, more tolerant to sample components than standard luciferase assay reagents. Luminescence was measured with EnVision microplate reader (PerkinElmer).
Compounds of Formula (I) were tested for their capacity to penetrate into the cell and inhibit the activation pathway of NF-kB.

active FYN (human recombinant, 62.7 kDa), sequence (P06241 whole entry): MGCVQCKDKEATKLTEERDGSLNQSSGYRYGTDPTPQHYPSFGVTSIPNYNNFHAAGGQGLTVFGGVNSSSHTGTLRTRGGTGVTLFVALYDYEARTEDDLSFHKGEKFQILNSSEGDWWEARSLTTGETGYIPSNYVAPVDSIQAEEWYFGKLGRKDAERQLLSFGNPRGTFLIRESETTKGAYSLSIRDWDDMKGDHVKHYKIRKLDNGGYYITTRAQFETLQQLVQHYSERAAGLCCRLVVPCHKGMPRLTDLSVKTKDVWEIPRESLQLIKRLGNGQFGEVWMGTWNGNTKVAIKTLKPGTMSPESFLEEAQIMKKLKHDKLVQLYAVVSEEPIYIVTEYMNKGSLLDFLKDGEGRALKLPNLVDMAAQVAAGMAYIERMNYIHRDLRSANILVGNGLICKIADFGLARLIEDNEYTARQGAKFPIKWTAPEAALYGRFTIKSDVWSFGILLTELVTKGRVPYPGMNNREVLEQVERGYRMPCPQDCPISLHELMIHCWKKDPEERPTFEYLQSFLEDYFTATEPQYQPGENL

With `Cc1ccccc1C(=O)Nc1ccc(CN2CCN(c3nccc(Nc4cc(C5CC5)[nH]n4)n3)CC2)cc1` [Compound 4, N-(4-((4-(4-((5-cyclopropyl-1H-pyrazol-3-yl)amino)pyrimidin-2-yl)piperazin-1-yl)methyl)phenyl)-2-methylbenzamide], the IC50 in assay [1] was found to be 17 nM; in assay [2], 788 nM.

For `O=C(Nc1ccc(CN2CCN(c3nccc(Nc4cc(C5CC5)[nH]n4)n3)CC2)cc1)c1ccccc1OC(F)(F)F` [Compound 8, N-(4-((4-(4-((5-cyclopropyl-1H-pyrazol-3-yl)amino)pyrimidin-2-yl)piperazin-1-yl)methyl)phenyl)-2-(trifluoromethoxy)benzamide], the IC50 amounted to 39 nM in assay [1] and 766 nM in assay [2].

In the case of `O=C(Nc1ccc(CN2CCN(c3nccc(Nc4cc(C5CC5)[nH]n4)n3)CC2)cc1)c1cccc(F)c1C(F)(F)F` [Compound 12, N-(4-((4-(4-((5-cyclopropyl-1H-pyrazol-3-yl)amino)pyrimidin-2-yl)piperazin-1-yl)methyl)phenyl)-3-fluoro-2-(trifluoromethyl)benzamide], the IC50 is 29 nM in assay [1] and 430 nM in assay [2].

As to `O=C(Nc1ccc(CN2CCN(c3nccc(Nc4cc(C5CC5)[nH]n4)n3)CC2)cc1)c1c(F)cccc1C(F)(F)F` [Compound 13, N-(4-((4-(4-((5-cyclopropyl-1H-pyrazol-3-yl)amino)pyrimidin-2-yl)piperazin-1-yl)methyl)phenyl)-2-fluoro-6-(trifluoromethyl)benzamide], the values for the concentration for half-maximal inhibition (IC50) in assay [1] and in assay [2] were 23 nM and 493 nM, respectively.

Regarding `O=C(Nc1ccc(CN2CCN(c3nccc(Nc4cc(C5CC5)[nH]n4)n3)CC2)cc1)c1ccc(F)cc1C(F)(F)F` [Compound 14, N-(4-((4-(4-((5-cyclopropyl-1H-pyrazol-3-yl)amino)pyrimidin-2-yl)piperazin-1-yl)methyl)phenyl)-4-fluoro-2-(trifluoromethyl)benzamide], the IC50 was found to be 16 nM in assay [1] and 603 nM in assay [2].

Consider `Cc1cc(CN2CCN(c3nccc(Nc4cc(C5CC5)[nH]n4)n3)CC2)ccc1NC(=O)c1ccccc1F` [Compound 17, N-(4-((4-(4-((5-cyclopropyl-1H-pyrazol-3-yl)amino)pyrimidin-2-yl)piperazin-1-yl)methyl)-2-methylphenyl)-2-fluorobenzamide], for which the IC50 is 30 nM in assay [1] and > 2000 nM in assay [2].

On to `CCc1cc(CN2CCN(c3nc(C)cc(Nc4cc(C5CC5)[nH]n4)n3)CC2)ccc1NC(=O)c1ccccc1F` [Compound 18, N-(4-((4-(4-((5-cyclopropyl-1H-pyrazol-3-yl)amino)-6-methylpyrimidin-2-yl)piperazin-1-yl)methyl)-2-ethylphenyl)-2-fluorobenzamide], for which the values for the half-inhibitory concentration (IC50) in assay [1] and in assay [2] were 94 nM and 1370 nM, respectively.

Take `Cc1nc(C(=O)Nc2ccc(CN3CCN(c4nccc(Nc5cc(C6CC6)[nH]n5)n4)CC3)cc2)c(C(F)(F)F)o1` [Compound 21, N-(4-((4-(4-((5-cyclopropyl-1H-pyrazol-3-yl)amino)pyrimidin-2-yl)piperazin-1-yl)methyl)phenyl)-2-methyl-5-(trifluoromethyl)oxazole-4-carboxamide]: the IC50 in assay [1] worked out at 42 nM; in assay [2], 854 nM.

Consider `Cc1nocc1C(=O)Nc1ccc(CN2CCN(c3nccc(Nc4cc(C5CC5)[nH]n4)n3)CC2)cc1` [Compound 23, N-(4-((4-(4-((5-cyclopropyl-1H-pyrazol-3-yl)amino)pyrimidin-2-yl)piperazin-1-yl)methyl)phenyl)-3-methylisoxazole-4-carboxamide], for which the IC50 came to 103 nM in assay [1] and 1930 nM in assay [2].

Consider `O=C(Nc1ccc(CN2CCN(c3nccc(Nc4cc(C5CC5)[nH]n4)n3)CC2)cc1)c1cccnc1C(F)(F)F` [Compound 27, N-(4-((4-(4-((5-cyclopropyl-1H-pyrazol-3-yl)amino)pyrimidin-2-yl)piperazin-1-yl)methyl)phenyl)-2-(trifluoromethyl)-nicotinamide], for which the 50% inhibitory concentration (IC50) in assay [1] is 27 nM; in assay [2], 1340 nM.

On to `O=C(Nc1ccc(CN2CCN(c3nccc(Nc4cc(C5CC5)[nH]n4)n3)CC2)cc1)c1cnccc1C(F)(F)F` [Compound 29, N-(4-((4-(4-((5-cyclopropyl-1H-pyrazol-3-yl)amino)pyrimidin-2-yl)piperazin-1-yl)methyl)phenyl)-4-(trifluoromethyl)-nicotinamide], for which the results for the IC50 in assay [1] and in assay [2] were 8 nM and 973 nM, respectively.

In the case of `O=C(Nc1ccc(CN2CCN(c3nccc(Nc4cc(C5CC5)[nH]n4)n3)CC2)cc1)c1ccncc1C(F)(F)F` [Compound 32, N-(4-((4-(4-((5-cyclopropyl-1H-pyrazol-3-yl)amino)pyrimidin-2-yl)piperazin-1-yl)methyl)phenyl)-3-(trifluoromethyl)-isonicotinamide], the half-maximal inhibitory concentration (IC50) in assay [1] turned out to be 17 nM; in assay [2] it was 1000 nM.

On to `O=C(Nc1ccc(CN2CCN(c3nccc(Nc4nnc(C5CC5)o4)n3)CC2)cc1)c1ccccc1C(F)(F)F` [Compound 44, N-(4-((4-(4-((5-cyclopropyl-1,3,4-oxadiazol-2-yl)amino)pyrimidin-2-yl)piperazin-1-yl)methyl)phenyl)-2-(trifluoromethyl)benzamide], for which the half-maximal inhibitory concentration (IC50) in assay [1] is > 1000 nM.

Turning to `COc1ccnc(Nc2ccnc(N3CCN(Cc4ccc(NC(=O)c5ccccc5C(F)(F)F)cc4)CC3)n2)c1` [Compound 45, N-(4-((4-(4-((4-methoxypyridin-2-yl)amino)pyrimidin-2-yl)piperazin-1-yl)methyl)phenyl)-2-(trifluoromethyl)benzamide], the IC50 in assay [1] was 441 nM.

On to `Cc1cc(Nc2cc(C3CC3)n[nH]2)nc(N2CCN(Cc3ccc(NC(=O)c4ccccc4C(F)(F)F)cc3)CC2)n1` [Compound 46, N-(4-((4-(4-((5-cyclopropyl-1H-pyrazol-3-yl)amino)-6-methylpyrimidin-2-yl)piperazin-1-yl)methyl)phenyl)-2-(trifluoromethyl)benzamide], for which the concentration for half-maximal inhibition (IC50) in assay [1] was 29 nM.

For the molecule `Cc1cc(Nc2ccnc(N3CCN(Cc4ccc(NC(=O)c5ccccc5C(F)(F)F)cc4)CC3)n2)[nH]n1` [Compound 47, N-(4-((4-(4-((3-methyl-1H-pyrazol-5-yl)amino)pyrimidin-2-yl)piperazin-1-yl)methyl)phenyl)-2-(trifluoromethyl)benzamide], the IC50 in assay [1] is 41 nM.

With `CC1CCCN1C(=O)Nc1ccc(CN2CCN(c3nccc(Nc4cc(C5CC5)[nH]n4)n3)CC2)cc1` (stereo not drawn) [Compound 48, N-(4-((4-(4-((5-cyclopropyl-1H-pyrazol-3-yl)amino)pyrimidin-2-yl)piperazin-1-yl)methyl)phenyl)-2-methylpyrrolidine-1-carboxamide], the concentration for half-maximal inhibition (IC50) in assay [1] amounted to 37 nM.

Regarding `O=C(Nc1ccc(CN2CCN(c3nccc(Nc4cc(C5CC5)[nH]n4)n3)CC2)cc1)NC1CCCC1` [Compound 49, 1-cyclopentyl-3-(4-((4-(4-((3-cyclopropyl-1H-pyrazol-5-yl)amino)pyrimidin-2-yl)piperazin-1-yl)methyl)phenyl)urea], the IC50 in assay [1] turned out to be 69 nM.
